Laboratory results reported in BindingDB's records for doi:10.1042/BJ20021535 (University of Dundee, 2003).

How the values were obtained:
[1] = biological target: Casein kinase I isoform delta (Rattus norvegicus, UniProt Q06486)
[2] = biological target: Dual specificity tyrosine-phosphorylation-regulated kinase 1A (Rattus norvegicus, UniProt Q63470)
[3] = biological target: Cyclin-dependent kinase 2 (Homo sapiens, UniProt P24941)
[4] = biological target: T1, Serine/threonine-protein kinase Sgk1 (Homo sapiens, UniProt O00141)
T1 sequence (O00141 whole entry): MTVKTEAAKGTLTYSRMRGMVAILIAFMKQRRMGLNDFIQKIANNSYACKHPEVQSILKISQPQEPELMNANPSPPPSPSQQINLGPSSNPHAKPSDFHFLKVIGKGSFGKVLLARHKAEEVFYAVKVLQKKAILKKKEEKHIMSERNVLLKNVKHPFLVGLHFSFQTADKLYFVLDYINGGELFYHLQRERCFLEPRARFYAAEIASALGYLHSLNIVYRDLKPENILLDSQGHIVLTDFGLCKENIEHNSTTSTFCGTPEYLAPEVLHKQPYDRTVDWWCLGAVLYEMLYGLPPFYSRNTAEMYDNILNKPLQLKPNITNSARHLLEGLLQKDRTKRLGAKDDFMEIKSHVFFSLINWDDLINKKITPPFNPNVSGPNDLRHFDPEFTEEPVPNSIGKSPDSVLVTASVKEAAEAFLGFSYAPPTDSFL

[5] = biological target: Tyrosine-protein kinase Lck (Homo sapiens, UniProt P06239)
Sequence of Tyrosine-protein kinase Lck (P06239 whole entry): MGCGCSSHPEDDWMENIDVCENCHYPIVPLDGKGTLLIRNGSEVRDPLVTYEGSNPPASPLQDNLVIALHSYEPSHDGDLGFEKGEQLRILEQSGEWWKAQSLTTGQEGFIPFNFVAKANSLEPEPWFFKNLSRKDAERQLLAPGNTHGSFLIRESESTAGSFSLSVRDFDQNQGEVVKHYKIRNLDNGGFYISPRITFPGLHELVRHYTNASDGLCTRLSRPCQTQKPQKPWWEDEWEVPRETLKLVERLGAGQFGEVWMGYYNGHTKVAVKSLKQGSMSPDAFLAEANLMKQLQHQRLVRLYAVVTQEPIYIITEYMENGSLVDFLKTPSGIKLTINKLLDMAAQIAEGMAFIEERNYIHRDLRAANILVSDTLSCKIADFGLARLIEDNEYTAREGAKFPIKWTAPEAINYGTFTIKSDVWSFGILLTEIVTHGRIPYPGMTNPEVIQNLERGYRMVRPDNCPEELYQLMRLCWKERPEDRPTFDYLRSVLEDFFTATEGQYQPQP

[6] = biological target: Ninein (Homo sapiens, UniProt Q8N4C6)
Sequence of Ninein (Q8N4C6 whole entry): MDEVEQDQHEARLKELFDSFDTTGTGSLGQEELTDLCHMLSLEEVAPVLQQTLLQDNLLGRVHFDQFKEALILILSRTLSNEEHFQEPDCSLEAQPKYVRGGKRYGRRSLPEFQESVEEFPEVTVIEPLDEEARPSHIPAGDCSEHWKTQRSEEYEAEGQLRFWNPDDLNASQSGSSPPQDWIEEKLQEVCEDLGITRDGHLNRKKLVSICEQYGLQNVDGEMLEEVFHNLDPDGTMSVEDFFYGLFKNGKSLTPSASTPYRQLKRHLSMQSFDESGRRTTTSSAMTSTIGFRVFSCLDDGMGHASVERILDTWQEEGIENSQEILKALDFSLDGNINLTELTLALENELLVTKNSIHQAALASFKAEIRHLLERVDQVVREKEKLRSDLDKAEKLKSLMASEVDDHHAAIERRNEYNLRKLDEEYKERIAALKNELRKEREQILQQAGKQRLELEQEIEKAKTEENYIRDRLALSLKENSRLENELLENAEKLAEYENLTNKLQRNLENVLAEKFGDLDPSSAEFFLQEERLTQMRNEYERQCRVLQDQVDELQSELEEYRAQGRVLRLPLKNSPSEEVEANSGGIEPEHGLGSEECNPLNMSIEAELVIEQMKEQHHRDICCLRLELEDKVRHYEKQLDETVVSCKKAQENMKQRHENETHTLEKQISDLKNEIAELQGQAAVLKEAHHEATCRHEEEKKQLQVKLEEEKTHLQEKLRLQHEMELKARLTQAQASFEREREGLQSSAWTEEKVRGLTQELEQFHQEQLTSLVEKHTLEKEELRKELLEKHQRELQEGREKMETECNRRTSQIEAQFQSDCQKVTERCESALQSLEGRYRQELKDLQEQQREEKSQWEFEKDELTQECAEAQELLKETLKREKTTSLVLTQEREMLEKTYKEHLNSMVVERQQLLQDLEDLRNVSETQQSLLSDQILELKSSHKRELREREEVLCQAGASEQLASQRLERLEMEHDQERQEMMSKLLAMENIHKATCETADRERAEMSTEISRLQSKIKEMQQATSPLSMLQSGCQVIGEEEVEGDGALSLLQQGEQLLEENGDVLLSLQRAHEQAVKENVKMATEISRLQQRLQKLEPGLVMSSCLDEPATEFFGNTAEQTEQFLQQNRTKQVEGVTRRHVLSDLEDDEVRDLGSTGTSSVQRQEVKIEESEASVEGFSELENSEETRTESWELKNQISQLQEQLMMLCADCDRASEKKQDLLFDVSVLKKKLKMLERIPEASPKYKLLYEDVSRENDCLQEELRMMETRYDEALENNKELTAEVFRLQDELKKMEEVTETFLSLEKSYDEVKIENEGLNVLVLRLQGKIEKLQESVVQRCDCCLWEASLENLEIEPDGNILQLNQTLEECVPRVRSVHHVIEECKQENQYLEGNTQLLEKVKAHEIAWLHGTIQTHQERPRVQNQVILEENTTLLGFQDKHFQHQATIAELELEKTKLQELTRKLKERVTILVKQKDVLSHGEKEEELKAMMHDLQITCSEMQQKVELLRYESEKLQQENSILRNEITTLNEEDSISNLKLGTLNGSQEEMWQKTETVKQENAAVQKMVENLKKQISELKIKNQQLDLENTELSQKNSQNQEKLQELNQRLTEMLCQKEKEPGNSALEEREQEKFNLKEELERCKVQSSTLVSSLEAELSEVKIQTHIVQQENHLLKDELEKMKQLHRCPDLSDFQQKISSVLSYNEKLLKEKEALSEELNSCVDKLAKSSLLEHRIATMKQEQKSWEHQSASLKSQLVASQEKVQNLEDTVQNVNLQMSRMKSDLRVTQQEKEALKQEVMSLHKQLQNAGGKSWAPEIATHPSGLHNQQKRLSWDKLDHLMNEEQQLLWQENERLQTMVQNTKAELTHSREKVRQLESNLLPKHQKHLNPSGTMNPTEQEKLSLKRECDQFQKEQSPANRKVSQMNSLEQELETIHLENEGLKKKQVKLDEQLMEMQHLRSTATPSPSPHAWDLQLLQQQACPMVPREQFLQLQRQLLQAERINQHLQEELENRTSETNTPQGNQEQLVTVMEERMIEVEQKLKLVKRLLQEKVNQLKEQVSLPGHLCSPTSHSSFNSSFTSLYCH

Sequence of Casein kinase I isoform delta (Q06486 whole entry, canonical isoform): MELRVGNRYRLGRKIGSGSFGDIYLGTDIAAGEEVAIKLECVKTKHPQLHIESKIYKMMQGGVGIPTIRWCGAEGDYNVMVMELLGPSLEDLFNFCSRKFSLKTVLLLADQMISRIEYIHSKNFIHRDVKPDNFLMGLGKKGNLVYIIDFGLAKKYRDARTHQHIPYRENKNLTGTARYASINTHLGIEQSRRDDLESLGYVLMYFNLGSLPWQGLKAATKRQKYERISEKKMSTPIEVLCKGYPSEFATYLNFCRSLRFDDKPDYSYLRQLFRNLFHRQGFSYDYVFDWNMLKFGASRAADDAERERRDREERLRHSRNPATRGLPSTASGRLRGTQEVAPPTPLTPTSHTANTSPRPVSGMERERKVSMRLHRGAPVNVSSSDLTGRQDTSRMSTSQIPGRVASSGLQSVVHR

Ki [6] [nM] | SMILES | Ki [1] [nM] | Ki [3] [nM] | other results
 | CC[C@H](CO)Nc1nc(NCc2ccccc2)c2ncn(C(C)C)c2n1 [2,6,9-Trisubstituted purine deriv. 28] | > 10000 |  | 
 | CC(C)[C@H](CO)Nc1nc(Nc2cccc(Cl)c2)c2ncn(C(C)C)c2n1 [(2R)-2-({6-[(3-chlorophenyl)amino]-9-(propan-2-yl)-9H-purin-2-yl}amino)-3-methylbutan-1-ol] |  | 100 | Ki [2]: 300 nM
190 | O=Nc1c(C2C(=O)Nc3ccccc32)[nH]c2ccccc12 (centres undefined) [Indirubin-3 -monoxime] |  | 590 | Ki [4]: 380 nM; Ki [5]: 300 nM
110 | O=C1Cc2c([nH]c3ccc([N+](=O)[O-])cc23)-c2ccccc2N1 [NSC 705701] |  |  | 
 | Nc1ncnc2c1cnn2-c1ccccc1 [1-Phenyl-1H-pyrazolo[3,4-d]pyrimidin-4-ylamine] | 9900 |  | 
